The source of these data is US10947210B2 (priority 2015, dated 2021).

By IC50 is commonly meant the concentration at which inhibition is half-maximal. As usually defined, the EC50 is the concentration giving half of the maximal effect. Higher therefore signals a less potent agent.

Assay [1] addresses HCV RNA-dependent RNA polymerase (NS5B) (Hepatitis C virus genotype 1b (isolate BK) (HCV), UniProt P26663). As to the kind of experiment: RNA-Dependent RNA HCV NS5B (polymerase) Assay and IC50 Determination. Type of assay: biochemical. The settings on record: purified HCV NS5B polymerase, polyA:U16 substrate, 32P-UTP incorporation; read-out: IC50. In outline: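 Purified NS5B was incubated with 0.5 uM polyA:U16, 10 μM UTP plus ^32P-UTP in 50 mM Hepes-KOH pH 7.5, 5 mM MgCl2, 5 mM DTT, 2% glycerol and 0.01% Triton X-100. Inhibitor reactions ran 60 min at 37° C, and radiolabelled RNA product was quantified after filter capture. IC50 values were obtained from concentration series.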

Assay [2] relates to HCV subgenomic RNA replicon in Huh-luc/neo-ET cells. The assay can be described thus: HCV Replicon Assay and EC50 Determination. The format is cell-based. The settings on record: Hepatitis C virus, 72 hours, luciferase reporter activity. As to the method:
HCV Replicon Assay and EC50 Determination.
HCV replicon assay is based on the luciferase reporter cell line (Huh-luc/neo-ET). This reporter cell line is a human liver carcinoma cell line (Huh-7) stably transfected with an autonomously replicating bicistronic HCV subgenomic RNA replicon (Lohmann et al., 1999, Science, 285, 110-113). Inhibition of HCV RNA replication was monitored through analysis of reporter luciferase activity. Briefly, HCV replicon cells were incubated with inhibitors for 72 hours at 37° C. After the incubation, duplicate plates were treated and incubated in parallel for assessment of cellular toxicity by XTT staining and anti-HCV activity by measurement of luciferase reporter activity. Either human interferon alpha 2B or ribavirin was used as a reference compound. EC50 values were determined using GraFit (Erithaus software) or Excel.
Table 2 presents EC50 data obtained using this HCV replicaon assay to test representative compounds. Data are presented as follows: “+++” means <0.1 μM; “++” means ≥0.1 μM and <1.0 μM; “+” means ≥1.0 μM.
For orientation: Replicon systems follow genome replication, usually without infectious particles.

HCV RNA-dependent RNA polymerase (NS5B), sequence (P26663 2420-3010): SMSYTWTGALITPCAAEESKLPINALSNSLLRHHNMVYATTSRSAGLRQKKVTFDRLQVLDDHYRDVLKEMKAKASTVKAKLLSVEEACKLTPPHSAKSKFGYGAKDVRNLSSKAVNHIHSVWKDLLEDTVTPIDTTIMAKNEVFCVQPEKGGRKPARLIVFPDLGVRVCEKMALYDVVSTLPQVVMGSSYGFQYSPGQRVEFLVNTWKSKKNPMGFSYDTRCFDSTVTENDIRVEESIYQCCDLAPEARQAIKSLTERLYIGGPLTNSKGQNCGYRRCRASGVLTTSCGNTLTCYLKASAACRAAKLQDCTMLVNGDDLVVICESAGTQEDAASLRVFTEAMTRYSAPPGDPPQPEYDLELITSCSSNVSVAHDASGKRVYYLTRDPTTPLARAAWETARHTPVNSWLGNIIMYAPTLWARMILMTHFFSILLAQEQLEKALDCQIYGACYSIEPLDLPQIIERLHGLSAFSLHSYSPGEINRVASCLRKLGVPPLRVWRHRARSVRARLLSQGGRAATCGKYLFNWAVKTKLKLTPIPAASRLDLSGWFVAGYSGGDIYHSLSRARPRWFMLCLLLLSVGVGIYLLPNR

Take `CNC(=O)c1c(-c2ccc(F)cc2)oc2cc(N(CC(=O)NC(C)(C)C(=O)NCc3cccc(C(=O)C=C(O)C(=O)O)c3)S(C)(=O)=O)c(C3CC3)cc12` [Compound 09-14C, 4-(3-{[2-(2-{[5-Cyclopropyl-2-(4-fluoro-phenyl)-3-methylcarbamoyl-benzofuran-6-yl]-methanesulfonyl-amino}-acetylamino)-2-methyl-propionylamino]-methyl}-phenyl)-2-hydroxy-4-oxo-but-2-enoic Acid]: the IC50 in assay [1] was greater than 1000 nM. The compound also registered an EC50 in assay [2] of 100 to 1000 nM.
With `CNC(=O)c1c(-c2ccc(F)cc2)oc2cc(N(CCCCCOCc3ccc(C(=O)O)cc3)S(C)(=O)=O)c(C3CC3)cc12` [Compound 16-7, 4-(5-{[5-Cyclopropyl-2-(4-fluoro-phenyl)-3-methylcarbamoyl-benzofuran-6-yl]-methanesulfonyl-amino}-pentyloxymethyl)-benzoic Acid], the IC50 in assay [1] is 100 to 1000 nM. The EC50 in assay [2] is less than 100 nM.
`CNC(=O)c1c(-c2ccc(F)cc2)oc2cc(N(CC(=O)NC3(C(=O)NCc4cccc(C(=O)C=C(O)C(=O)O)c4)CCCC3)S(C)(=O)=O)c(C3CC3)cc12` [Compound 09-14E, 4-[3-({[1-(2-{[5-Cyclopropyl-2-(4-fluoro-phenyl)-3-methylcarbamoyl-benzofuran-6-yl]-methanesulfonyl-amino}-acetylamino)-cyclopentanecarbonyl]-amino}-methyl)-phenyl]-2-hydroxy-4-oxo-but-2-enoic Acid]: the IC50 in assay [1] is greater than 1000 nM. The compound further yielded an EC50 in assay [2] of 100 to 1000 nM.
Consider `CNC(=O)c1c(-c2ccc(F)cc2)oc2cc(N(CCOCCOCCOC(C)C(=O)O)S(C)(=O)=O)c(C3CC3)cc12` (stereo not shown) [Compound 23-6B, 2-{2-[2-(2-{[5-Cyclopropyl-2-(4-fluoro-phenyl)-3-methylcarbamoyl-benzofuran-6-yl]-methanesulfonyl-amino}-ethoxy)-ethoxy]-ethoxy}-propionic Acid], for which the half-inhibitory concentration (IC50) in assay [1] fell in the range of 100 to 1000 nM. The same compound came in with an EC50 in assay [2] of less than 100 nM.
Turning to `CNC(=O)c1c(-c2ccc(F)cc2)oc2cc(N(CC(=O)NC(C)C(=O)NCc3cccc(C(=O)C=C(O)C(=O)O)c3)S(C)(=O)=O)c(C3CC3)cc12` (stereo not shown) [Compound 09-14F, 4-(3-{[2-(2-{[5-Cyclopropyl-2-(4-fluoro-phenyl)-3-methylcarbamoyl-benzofuran-6-yl]-methanesulfonyl-amino}-acetylamino)-propionylamino]-methyl}-phenyl)-2-hydroxy-4-oxo-but-2-enoic Acid], in assay [1], the IC50 is greater than 1000 nM. In assay [2], the EC50 is 100 to 1000 nM.
Turning to `CNC(=O)c1c(-c2ccc(F)cc2)oc2cc(N(CCOCCOCCc3ccc(C(=O)O)cc3)S(C)(=O)=O)c(C3CC3)cc12` [Compound 11-6C, 4-{2-[2-(2-{[5-Cyclopropyl-2-(4-fluoro-phenyl)-3-methylcarbamoyl-benzofuran-6-yl]-methanesulfonyl-amino}-ethoxy)-ethoxy]-ethyl}-benzoic Acid], the IC50 in assay [1] lay within 100 to 1000 nM.
Same read-out and setting: to `CNC(=O)c1c(-c2ccc(F)cc2)oc2cc(N(CC(=O)NCC(=O)NCCCCC(=O)OC)S(C)(=O)=O)c(C3CC3)cc12` [Compound 10-3A, 5-[2-(2-{[5-Cyclopropyl-2-(4-fluoro-phenyl)-3-methylcarbamoyl-benzofuran-6-yl]-methanesulfonyl-amino}-acetylamino)-acetylamino]-pentanoic Acid Methyl Ester] belongs greater than 1000 nM; to `CNC(=O)c1c(-c2ccc(F)cc2)oc2cc(N(CCOCCOCCOCc3ccc(C(=O)OC)cc3)S(C)(=O)=O)c(C3CC3)cc12` [Compound 06-6E, 4-{2-[2-(2-{[5-Cyclopropyl-2-(4-fluoro-phenyl)-3-methylcarbamoyl-benzofuran-6-yl]-methanesulfonyl-amino}-ethoxy)-ethoxy]-ethoxymethyl}-benzoic acid methyl ester], 100 to 1000 nM.
